Assay results from ChEMBL document CHEMBL1152405, “Bis-anthracenyl isoxazolyl amides have enhanced anticancer activity” (Bioorg Med Chem Lett, 2009).

Tests used:
Assay type in all cases: functional
SW-620 = experiment: Growth inhibition of human SW620 cells after 24 hrs by MTT assay; details: SW-620, 24 h
SK-OV-3 = experiment: Growth inhibition of human SKOV3 cells at 10 uM after 24 hrs by MTT assay relative to control; set-up: scale not given: the % may be the effect or the level left
EKVX = experiment: Growth inhibition of human EKVX cells at 10 uM after 24 hrs by MTT assay relative to control; set-up: scale not given: the % may be the effect or the level left
HCT-116 = experiment: Growth inhibition of human HCT116 cells after 24 hrs by MTT assay; details: HCT-116, 24 h
MDA-MB-468 = experiment: Growth inhibition of human MDA-MB-468 cells at 10 uM after 24 hrs by MTT assay relative to control; set-up: scale not given: the % may be the effect or the level left
K562 = experiment: Growth inhibition of human K562 cells after 24 hrs by MTT assay; details: K562, 24 h
ACHN = experiment: Growth inhibition of human ACHN cells at 10 uM after 24 hrs by MTT assay relative to control; set-up: scale not given: the % may be the effect or the level left
KM12 = experiment: Growth inhibition of human KM12 cells at 10 uM after 24 hrs by MTT assay relative to control; set-up: scale not given: the % may be the effect or the level left
SNB-19 = experiment: Growth inhibition of human SNB19 cells at 10 uM after 24 hrs by MTT assay relative to control; set-up: scale not given: the % may be the effect or the level left
MDA-MB-435 [1] = experiment: Growth inhibition of human MDA-MB-435 cells at 10 uM after 24 hrs by MTT assay relative to control; set-up: scale not given: the % may be the effect or the level left
NCI-H460 [2] = experiment: Growth inhibition of human NCI-H460 cells after 24 hrs by MTT assay; details: NCI-H460, 24 h
PC-3 [3] = experiment: Growth inhibition of human PC3 cells after 24 hrs by MTT assay; details: PC-3, 24 h
UACC-62 = experiment: Growth inhibition of human UACC62 cells after 24 hrs by MTT assay; details: UACC-62, 24 h
786-0 [4] = experiment: Growth inhibition of human 786-0 cells at 10 uM after 24 hrs by MTT assay relative to control; set-up: scale not given: the % may be the effect or the level left
HOP-92 = experiment: Growth inhibition of human HOP92 cells at 10 uM after 24 hrs by MTT assay relative to control; set-up: scale not given: the % may be the effect or the level left
SK-MEL-2 [5] = experiment: Growth inhibition of human SK-MEL-2 cells at 10 uM after 24 hrs by MTT assay relative to control; set-up: scale not given: the % may be the effect or the level left
SK-MEL-2 [6] = experiment: Growth inhibition of human SK-MEL-2 cells after 24 hrs by MTT assay; details: SK-MEL-2, 24 h
DU-145 = experiment: Growth inhibition of human DU145 cells at 10 uM after 24 hrs by MTT assay relative to control; set-up: scale not given: the % may be the effect or the level left
786-0 [7] = experiment: Growth inhibition of human 786-0 cells after 24 hrs by MTT assay; details: 786-0, 24 h
HOP-62 = experiment: Growth inhibition of human HOP62 cells at 10 uM after 24 hrs by MTT assay relative to control; set-up: scale not given: the % may be the effect or the level left
HL-60(TB) = experiment: Growth inhibition of human HL-60(TB) cells at 10 uM after 24 hrs by MTT assay relative to control; set-up: scale not given: the % may be the effect or the level left
MDA-MB-435 [8] = experiment: Growth inhibition of human MDA-MB-435 cells after 24 hrs by MTT assay; details: MDA-MB-435, 24 h
Malme-3M = experiment: Growth inhibition of human MALME-3M cells after 24 hrs by MTT assay
SF-539 [9] = experiment: Growth inhibition of human SF539 cells at 10 uM after 24 hrs by MTT assay relative to control; set-up: scale not given: the % may be the effect or the level left
HCC 2998 = experiment: Growth inhibition of human HCC2998 cells at 10 uM after 24 hrs by MTT assay relative to control; set-up: scale not given: the % may be the effect or the level left
PC-3 [10] = experiment: Growth inhibition of human PC3 cells at 10 uM after 24 hrs by MTT assay relative to control; set-up: scale not given: the % may be the effect or the level left
T47D = experiment: Growth inhibition of human T47D cells at 10 uM after 24 hrs by MTT assay relative to control; set-up: scale not given: the % may be the effect or the level left
NCI-H23 = experiment: Growth inhibition of human NCI-H23 cells at 10 uM after 24 hrs by MTT assay relative to control; set-up: scale not given: the % may be the effect or the level left
NCI-H522 = experiment: Growth inhibition of human NCI-H522 cells after 24 hrs by MTT assay; details: NCI-H522, 24 h
NCI-H460 [11] = experiment: Growth inhibition of human NCI-H460 cells at 10 uM after 24 hrs by MTT assay relative to control; set-up: scale not given: the % may be the effect or the level left
LOX IMVI = experiment: Growth inhibition of human LOXIMVI cells after 24 hrs by MTT assay
CAKI-1 = experiment: Growth inhibition of human Caki1 cells at 10 uM after 24 hrs by MTT assay relative to control; set-up: scale not given: the % may be the effect or the level left
SF-268 = experiment: Growth inhibition of human SF268 cells after 24 hrs by MTT assay; details: SF-268, 24 h
SF-539 [12] = experiment: Growth inhibition of human SF539 cells after 24 hrs by MTT assay; details: SF-539, 24 h
BT-549 = experiment: Growth inhibition of human BT549 cells at 10 uM after 24 hrs by MTT assay relative to control; set-up: scale not given: the % may be the effect or the level left
SNB-75 = experiment: Growth inhibition of human SNB75 cells after 24 hrs by MTT assay; details: SNB-75, 24 h
M14 = experiment: Growth inhibition of human M14 cells at 10 uM after 24 hrs by MTT assay relative to control; set-up: scale not given: the % may be the effect or the level left
[13] = read-out: LC50 (the source's name)
[14] = read-out: pLC50 (the source's name) (converted)

SMILES: Cc1onc(-c2c3ccccc3c(Cl)c3ccccc23)c1C(=O)Nc1cc(C(=O)NCCCN(C)CCCNC(=O)c2cc(NC(=O)c3c(-c4c5ccccc5c(Cl)c5ccccc45)noc3C)cn2C)n(C)c1
- TGI (SW-620): 2750 nM
- GI50 (SW-620; read-out: GI50): 1440 nM
- CC50 (SW-620; [13]): 5240 nM
- GI50 (SW-620; read-out: pGI50 (converted)): 1450 nM
- CC50 (SW-620; [14]): 5250 nM
- Activity (SK-OV-3): -100%
- Activity (EKVX): -58.5%
- TGI (HCT-116): 2880 nM
- GI50 (HCT-116; read-out: GI50): 1540 nM
- GI50 (HCT-116; read-out: pGI50 (converted)): 1550 nM
- Activity (MDA-MB-468): -100%
- TGI (K562): 2190 nM
- GI50 (K562; read-out: GI50): 822 nM
- CC50 (K562; [13]): 5140 nM
- GI50 (K562; read-out: pGI50 (converted)): 813 nM
- CC50 (K562; [14]): 5130 nM
- Activity (ACHN): -100%
- Activity (KM12): -100%
- Activity (SNB-19): -100%
- Activity (MDA-MB-435 [1]): -100%
- TGI (NCI-H460 [2]): 2230 nM
- GI50 (NCI-H460 [2]; read-out: GI50): 1050 nM
- CC50 (NCI-H460 [2]; [13]): 4720 nM
- GI50 (NCI-H460 [2]; read-out: pGI50 (converted)): 1050 nM
- CC50 (NCI-H460 [2]; [14]): 4680 nM
- TGI (PC-3 [3]): 2690 nM
- GI50 (PC-3 [3]; read-out: GI50): 1400 nM
- CC50 (PC-3 [3]; [13]): 5190 nM
- GI50 (PC-3 [3]; read-out: pGI50 (converted)): 1410 nM
- CC50 (PC-3 [3]; [14]): 5250 nM
- TGI (UACC-62): 3440 nM
- GI50 (UACC-62; read-out: GI50): 1700 nM
- GI50 (UACC-62; read-out: pGI50 (converted)): 1700 nM
- Activity (786-0 [4]): -81.64%
- Activity (HOP-92): -16.66%
- Activity (SK-MEL-2 [5]): -77.54%
- TGI (SK-MEL-2 [6]): 4100 nM
- GI50 (SK-MEL-2 [6]; read-out: GI50): 2080 nM
- GI50 (SK-MEL-2 [6]; read-out: pGI50 (converted)): 2090 nM
- Activity (DU-145): -100%
- TGI (786-0 [7]): 4940 nM
- GI50 (786-0 [7]; read-out: GI50): 2130 nM
- CC50 (786-0 [7]; [13]): 16700 nM
- GI50 (786-0 [7]; read-out: pGI50 (converted)): 2140 nM
- CC50 (786-0 [7]; [14]): 16600 nM
- Activity (HOP-62): -87.55%
- Activity (HL-60(TB)): -94.78%
- TGI (MDA-MB-435 [8]): 3400 nM
- GI50 (MDA-MB-435 [8]; read-out: GI50): 1900 nM
- GI50 (MDA-MB-435 [8]; read-out: pGI50 (converted)): 1910 nM
- TGI (Malme-3M): 4270 nM
- GI50 (Malme-3M; read-out: GI50): 1930 nM
- GI50 (Malme-3M; read-out: pGI50 (converted)): 1950 nM
- Activity (SF-539 [9]): -100%
- Activity (HCC 2998): -91.29%
- Activity (PC-3 [10]): -100%
- Activity (T47D): -81.41%
- Activity (NCI-H23): -73.08%
- TGI (NCI-H522): 3510 nM
- GI50 (NCI-H522; read-out: GI50): 1590 nM
- GI50 (NCI-H522; read-out: pGI50 (converted)): 1580 nM
- Activity (NCI-H460 [11]): -100%
- TGI (LOX IMVI): 2960 nM
- GI50 (LOX IMVI; read-out: GI50): 1380 nM
- GI50 (LOX IMVI; read-out: pGI50 (converted)): 1380 nM
- Activity (CAKI-1): -74.88%
- TGI (SF-268): 2900 nM
- GI50 (SF-268; read-out: GI50): 1390 nM
- GI50 (SF-268; read-out: pGI50 (converted)): 1380 nM
- TGI (SF-539 [12]): 2720 nM
- GI50 (SF-539 [12]; read-out: GI50): 1420 nM
- CC50 (SF-539 [12]; [13]): 5220 nM
- GI50 (SF-539 [12]; read-out: pGI50 (converted)): 1410 nM
- CC50 (SF-539 [12]; [14]): 5250 nM
- Activity (BT-549): -49.26%
- TGI (SNB-75): 2710 nM
- GI50 (SNB-75; read-out: GI50): 1070 nM
- CC50 (SNB-75; [13]): 6840 nM
- GI50 (SNB-75; read-out: pGI50 (converted)): 1070 nM
- CC50 (SNB-75; [14]): 6920 nM
- Activity (M14): -92.68%
